Assay results from US8476248B2, “Process for the preparation of a water-soluble complex having resveratrol compounds; products comprising said complex; and uses thereof” (Uniao Brasileira de Educacao e Assistencia—Mantenedora da …, priority 2007, dated 2013).
≈ marks a conversion by molar mass, not a printed value.

How the values were obtained:
[1] = background statement; cited from earlier work
physchem = assay type: physicochemical
Procedure: Ten mg, 100 mg, 500 mg, 1000 mg and 2000 mg of β-CD/Res complex were put in 100 mL volumetric flasks and water was added until completing their volume. The solutions stayed at ultrasound for 60 minutes. Then samples were centrifuged and filtered in a 0.45 μm pore diameter cellulose acetate membrane. Twenty μL portions of the samples were diluted 2000 times and their absorbances were measured by a UV-VIS spectrophotometer (FIG. 2). It was noticed that system saturation happens from 1000 mg of β-CD/Res (FIG. 3). The concentration of trans-resveratrol in 1000 mg and 2000 mg β-CD/Res sample concentrations was determined by High-Performance Liquid Chromatography (HPLC). For quantification, an external calibration curve was used, with trans-resveratrol concentrations ranging from 0.10 a 200.0 mg.L^−1. HPLC was carried out in isocratic elution (flow of 1.0 mL min^−1), with an aqueous solution of 25% acetonitrile, pH 3.0, adjusted with H3PO4. The chromatograph was equipped with UV-VIS detector and a C18 column, 5 μm 250×4.6 mm. Sample portions were diluted 1000 times with eluent, and 20 μL were injected and detected in 306 nm. The concentrations of trans-resveratrol of the 1000 mg sample of β-CD/Res complex were 3010±62 mg.L^−1 and of the 2000 mg sample of βCD/Res complex were 2960.5±53 mg.L^−1. […] All analyses were carried out in quintuplicate.

Solubility (physchem; 60 min): 27.5 µg/mL (≈ 120 µM)
solubility at 60 min (physchem; water, thermodynamic from solid): 27.5 ± 0.45 µg/mL (≈ 120 µM)
Compound: Oc1ccc(C=Cc2cc(O)cc(O)c2)cc1 [trans-resveratrol, 3,5,4′-trihydroxystilbene]
water solubility [1]: less than 0.03 g/L
